Tested on: Malassezia pachydermatis (ATCC14522 strain)
Test: Malassezia otitis externa effect test (dog) (Test Example 3)
Type: in vivo, dog (Beagle)
Parameters: Total score (redness, earwax, itching, rash) Immediately before treatment / Total score (redness, earwax, itching, rash) 7 Days after treatment: scale not given here
Settings: for Microbial count (cfu/ml) 7 Days after treatment: 500 ppm agent solution for 1 minute; for Microbial count (cfu/ml) Immediately before treatment: baseline before 500 ppm agent solution; for Total score (redness, earwax, itching, rash) 7 Days after treatment: 5 mL of 500 ppm agent solution for 1 minute; for Improvement rate (%) of microbial count / Improvement rate (%) of symptom total score: 500 ppm for 1 minute, 7 days after treatment; for Total score (redness, earwax, itching, rash) Immediately before treatment: baseline 7 days after inoculation, before 500 ppm agent solution
Procedure: Test Example 3: Malassezia Otitis Externa Effect Test (Dog) Test Variety: Beagle (19 to 20-Month-Old)
Test Microbial Strain: Malassezia Pachydermatis (ATCC14522 Strain)
A colony of the Malassezia microbe pre-cultured (7 days, 30° C.) on a Sabouraud agar medium was suspended in sterilized physiological saline (microbial concentration of 1.0 × 10^6 cells/mL), and 0.1 mL of the resulting suspension was inoculated into both ears of the test animal. 7 Days after the inoculation, both ears were filled with 5 mL of an agent solution (sterilized physiological saline solution supplemented with 5% DMSO) prepared to have a concentration of the test compound of 500 ppm, and after 1 minute, thoroughly washed with sterilized physiological saline solution.
At the same time, the number of the Malassezia microbe present inside the ears of the sample was also investigated by the following method.
The surface of the ear canal was scraped three times using a cotton swab to collect the microbe, and the collected microbe was suspended in 1 mL of PBS (containing 8 g of sodium chloride, 2.9 g of disodium hydrogen phosphate, 0.2 g of potassium chloride, and 0.2 g of potassium dihydrogen phosphate in 1000 mL) supplemented with 1% v/v of Tween80 (polyoxyethylene sorbitan monooleate: manufactured by Kanto Chemical Co., Ltd.) together with the cotton swab. The resulting suspension was serially diluted 10-fold with the PBS, and 0.1 mL thereof was applied to a CHROMagar Malassezia/Candida medium (trade name; peptone, special enzyme substrate mixture, chloramphenicol, olive oil, agar) and cultured at 30° C. for 4 days. After that, the colonies having a pink to purple color were counted, the microbial count score was calculated, and the improvement rate was determined.

Structure (SMILES)	Microbial count (cfu/ml) 7 Days after treatment (left ear canal swab) [cfu/ml]	Microbial count (cfu/ml) Immediately before treatment (left ear canal swab)	Total score (redness, earwax, itching, rash) 7 Days after treatment (left ear)	Improvement rate (%) of microbial count (left ear) [%]	Improvement rate (%) of symptom total score (left ear) [%]	Total score (redness, earwax, itching, rash) Immediately before treatment (left ear)	Microbial count (cfu/ml) 7 Days after treatment (right ear canal swab) [cfu/ml]	Microbial count (cfu/ml) Immediately before treatment (right ear canal swab)	Total score (redness, earwax, itching, rash) 7 Days after treatment (right ear)	Improvement rate (%) of microbial count (right ear) [%]	Improvement rate (%) of symptom total score (right ear) [%]	Total score (redness, earwax, itching, rash) Immediately before treatment (right ear)
Cc1cc(-c2nc(C#N)[nH]c2Cl)ccc1Cl [Compound No. 7, 5-chloro-4-(4-chloro-3-methylphenyl)-1H-imidazole-2-carbonitrile]	20	480 cfu/ml	0	95.8	100	3	30	160 cfu/ml	0	81.3	100	3
Cc1ccc(-c2nc(C#N)n(O)c2Cl)cc1 [Compound No. 9, 5-chloro-1-hydroxy-4-(4-methylphenyl)-1H-imidazole-2-carbonitrile]	20	1,100 cfu/ml	1	98.2	67	3	30	1,600 cfu/ml	1	98.1	67	3
